Results from patent US12527782B2, “Use of hexokinase 2/mitochondria-detaching compounds for treating hexokinase-2 (HK2)-expressing cancers” (Vidac Pharma Ltd., priority 2016, dated 2026).
Read-outs that look alike come from different tables or passages of the source.

How the values were obtained:
[1] = system: Leukemia (BCLL) LEXFCM JURL-MK1; test: CFA, LEXFCM JURL-MK1; format: cell-based, human; details: Cell line/CFA
Experimental: (§1) CFA was performed by Charles River Laboratories (Freiburg, Germany) in 96-well plate format according to a modified two-layer soft agar assay. The origin of the tumor xenografts has been described (Fiebig et al. 1989, incorporated herein by reference). The list of tumors used in this study is detailed in Table 1.

[2] = system: Leukemia (BCLL) LEXFCM K-562; test: CFA, LEXFCM K-562; format: cell-based, human; details: Cell line/CFA
Experimental: as §1

[3] = system: Lung (NSCLC, large) LXFL 430; test: CFA, LXFL 430; format: cell-based, human; details: PDX/CFA
Experimental: as §1

[4] = system: Lung (NSCLC, epidermoid) LXFE 937; test: CFA, LXFE 937; format: cell-based, human; details: PDX/CFA
Experimental: as §1

[5] = system: Lymphoma (Non-Hodgkin) LYXFNH HUT-78; test: CFA, LYXFNH HUT-78; format: cell-based, human; details: Cell line/CFA
Experimental: as §1
(§2) The cell lines tested were from a large collection of patient-derived (PDX) and cell line-derived (CDX) human tumor xenografts growing subcutaneously in immunodeficient nude mice (Oncotest GmbH, a Charles River Division). The majority of the xenografts have been directly transplanted from patients and passaged in nude mice. The xenografts retain most of the characteristics of the parental patient tumors including histology and sensitivity to anti-cancer drugs, and efficacy tests in tumor-bearing nude mice largely replicate the response of the donor patient to standard anti-cancer drugs. The cell lines were from publicly available cell lines, including cell lines derived from solid tumors and hematological malignancies. […]
(§3) The clonogenic assay was carried out in a 96 well plate format using ultra low attachment plates. […] Cultures were incubated at 37° C. and 7.5% CO2 in a humidified atmosphere for 8 to 14 days and monitored closely for colony growth using an inverted microscope. […]

[6] = system: Lymphoma (Non-Hodgkin) LYXFNH HH (CTCL cell line HH); test: CFA / 3D clonogenic assay, LYXFNH HH; format: cell-based, human; details: for IC50: CTCL cell line HH
Experimental: as §1
as §2, with “malignancies. In the clonogenic assay, the capacity of tumor cells for anchorage-independent growth was investigated as colony formation in soft agar in the presence and absence of test compounds. For the assay, tumor cells were harvested from in vitro culture, or tumor cell suspensions were prepared directly from human tumor xenografts growing in nude mice. The cell suspensions also contained tumor stem cells, which are believed to mediate the metastatic and infiltrative potential of a tumor.” for “malignancies.”
Formula C was investigated for antitumor potency and tumor type selectivity ex vivo in 11 human tumor models (5 tumor cell lines, 6 xenograft-derived cell suspensions) of various histotypes. Tests were carried out using a 3D clonogenic assay in 96-well format using an image based read-out.
as §3

Breast MAXF 857 = test: CFA, MAXF 857; format: cell-based, human; details: PDX/CFA
Experimental: as §1

Breast MAXF MDA-MB-231 = test: CFA, MAXF MDA-MB-231; format: cell-based, human; details: Cell line/CFA
Experimental: as §1

[7] = system: Cutanous T cell lymphoma HH; test: XTT cell viability assay, HH; format: cell-based, human; details: Cell line/XTT
Experimental: For XTT assays, cells were plated in 96-well plates (5,000 cells per well) for 24 hours. Cells were then incubated with different concentrations of Formula C in triplicates for 72 hr in DMEM supplemented with 0.5% FCS and 5 mM Glucose. Cell viability was evaluated using 2,3-bis-(2-methoxy-4-nitro-5-sulfophenyl)-2H-tetrazolium-5-carboxanilide (XTT)-based colorimetric assay kit (Biological Industries Ltd., Kibbutz Beit-Haemek, Israel). The optical density was measured by an Infinite 200 ELISA reader at 450 nm and reference was measured at 630 nm (Tecan, Männedorf, Switzerland).

[8] = AK/cSCC mouse model of chronic UVB exposure: local and general tolerability; format: in vivo; details: UVB-exposed SKH-1 mice, Day 1 through Day 50
Experimental: The formulation ingredients for vehicle, 2.5%, and 5% Formula C ointment consisted of: 32% Gelucire44/14® (Gattefosse, Saint-Priest, France), and 68% combined Labrasol® (Gattefosse, Saint-Priest, France) with corresponding amount of Formula C (w/w). New ointments were prepared every 2 weeks. The 40% topical solution was prepared just prior to use by mixing (w/w) 60% propylene glycol (Sigma, St. Louis, MO, USA) with 40% Formula C.
The effect of Formula C on cell proliferation and apoptosis was tested in an AK/cSCC mouse model of chronic UVB exposure. Forty-eight SKH-1 hairless female mice were chronically exposed to UVB radiation for 16 weeks. By that time, more than 60% of the animals had developed at least one SCC lesion. Three days after the final irradiation dose, the mice were randomly assigned to 1 of 4 treatment groups (N=12 mice/group) and a 50-day treatment phase started. Treatment groups included: vehicle, 2.5% or 5% Formula C ointment applied once-daily for 50 days, or 40% Formula C topical solution applied once-daily for the first 5 days of every three-week cycle (total of three treatment cycles).

CC/C=C\CC1C(=O)CCC1CC(=O)Oc1cccc2cccnc12 (stereo not drawn) [Formula C]
IC50 [1]: 1670 nM | IC50 [2]: 2340 nM | IC50 [3]: 237 nM | IC50 [4]: 5.57 µM | IC50 [5]: 965 nM | IC50 ([6]; clonogenic assay in soft agar, read-out: relative IC50, colony formation): 1220 nM | IC50 ([6]; clonogenic assay, concentration at T/C=50%, read-out: absolute IC50, colony formation): 1200 nM | test concentration from which pronounced effects were observed ([6]; clonogenic assay, cell lines): ≥ 3 µM | IC50 (Breast MAXF 857): 1560 nM | IC50 (Breast MAXF MDA-MB-231): 1700 nM | IC50 [7]: 604 nM | adverse local skin reactions ([8]; 2.5%, 5% ointment or 40% topical solution): no adverse local skin reactions of any kind | body weight abnormalities [8]: no abnormalities in body weight | clinical signs [8]: no clinical signs | erythema or edema [8]: no erythema or edema
